Test system: fibrin clot
Experiment: Structural profile of fibrin clot, Protocol C on STA-R with tissue factor and plasminogen activator (TF+t-PA)
Format: biochemical
Protocol: Protocol C (With t-PA, Method on STA-R® with Tissue Factor and Plasminogen Activator):
To 8 cuvettes of the STA-R® Evolution Expert Series automated device (Stago), are added, simultaneously by the instrument: • 200 μl of a sample of pure plasma, • 50 μl of a [TF 2 to 5 pM final concentration+PL 4 μM final concentration+tPA 0.1 to 0.2 μg/ml final concentration] mixture.
The automated device agitates by means of the arm, and carries out an incubation for 300 seconds at 37° C.
It then adds 50 μl of CaCl2 at a final concentration of 16.7 mM, and agitates by means of the needle of the initiating reagent.
Finally, the automated device measures the number of protofibrils at the 2 wavelengths of 540 nm and 780 nm as a function of time for 30 minutes.
To 8 cuvettes of the STA-R® Evolution Expert Series automated device (Stago), are added, simultaneously by the instrument: • 200 μl of sample of pure plasma from 9 patients with normal hemostatis results, of a frozen plasma deficient in PAI-1, of 3 control plasmas at 0, 20 and 40 AU/ml of PAI-1, of a protein S-depleted plasma, of a TFPI-depleted plasma and of 3 plasmas with an overload of rivaroxaban at 0, 100 and 200 ng/ml, • 50 μl of a [TF 2 to 5 pM final concentration+PL 4 μM final concentration+t-PA 150 ng/ml] mixture.
It then adds 50 μl of CaCl2 at a final concentration of 16.7 mM, and agitates by means of the needle.

Compound: O=C(NC[C@H]1CN(c2ccc(N3CCOCC3=O)cc2)C(=O)O1)c1ccc(Cl)s1 [rivaroxaban]
- downward slope of the protofibril plateau (plasma containing rivaroxaban, TF + t-PA 150 ng/ml): all the greater the faster the lysis
- protofibril plateau (duration), reflecting the stability of the clot (plasmas with an overload of rivaroxaban at 0, 100 and 200 ng/ml, TF 2 to 5 pM, t-PA 150 ng/ml, 30 minutes): shortened proportionally to the concentration

Reference: patent US20170234853A1, “METHOD FOR DETERMINING THE STRUCTURAL PROFILE OF A FIBRIN CLOT REFLECTING THE STABILITY THEREOF, IN ORDER TO PREDICT THE RISK OF BLEEDING, THROMBOSIS OR RETHROMBOSIS” (DIAGNOSTICA STAGO, priority 2014, published 2017)
